Counter-ions that a name gives are not always drawn.
Assays:
HCT-116 cell line = assay: Inhibition of cell growth, tetrazolium salt (MTT) assay; type: cell-based; settings: Homo sapiens; for IC50: HCT-116, 120 h, first HCT-116 column (c4), three to five days, read-out: HCT-116 IC50; for IC50 / inhibition at 0.175 µM: MTT; for inhibition at 0.25 µM: HCT-116, HCT116 cells, compound at 250 nM, read-out: % Inhibition HCT116 @ 250 nM; for inhibition at 0.175 µM: HCT-116, HCT-116 cells, compound at 0.175 uM
Method: Inhibition of Cell Growth: Assessment of Cytotoxicity:
Inhibition of cell growth was measured using the tetrazolium salt assay, which is based on the ability of viable cells to reduce 3-(4,5-dimethylthiazol-2-yl)-2,5-[2H]-diphenyltetrazolium bromide (MTT) to formazan (Mossman, Journal of Immunological Methods, vol. 65 (1983), pp. 55-58). The water-insoluble purple formazan product was then detected spectrophotometrically. The HCT-116 cell line was used as a representative cancer cell line and grown in 96-well plates. Cells were plated in McCoy's 5A Medium at a volume of 135 μl/well. Plates were incubated for four hours before addition of inhibitor compounds. Different concentrations of inhibitor compounds were added in 0.5% (v/v) dimethylsulfoxide (15 μLuwell), and cells were incubated at 37° C. (5% CO2) for three to five days. At the end of the incubation, MTT was added to a final concentration of 0.2 mg/mL, and cells were incubated for 4 hours more at 37° C. After centrifugation of the plates and removal of medium, the absorbance of the formazan (solubilized in dimethylsulfoxide) was measured at 540 nm. […] All results were compared to control cells treated only with 0.5% (v/v) dimethylsulfoxide.

CDK2/Cyclin A = CDK2/Cyclin A (Homo sapiens, UniProt P24941); assay: Inhibition of CDK2/Cyclin A Retinoblastoma Kinase Activity; type: biochemical; settings: for Ki: apparent Ki, CDK2/proteolyzed cyclin A, Rb fragment substrate, 25 μM ATP; for inhibition at 0.05 µM: read-out: % inhibition of CDK2 (@ 0.05 μM), compound at 0.05 μM
Method: Cyclin-dependent kinase activity was measured by quantifying the enzyme-catalyzed, time-dependent incorporation of radioactive phosphate from [^32P]ATP or [^33P]ATP into a protein substrate. Unless noted otherwise, assays were performed in 96-well plates in a total volume of 50 μL, in the presence of 10 mM HEPES (N-[2-hydroxyethyl]piperazine-N′-[2-ethanesulfonic acid]) (pH 7.4), 10 mM MgCl2, 25 μM adenosine triphosphate (ATP), 1 mg/mL ovalbumin, 5 μg/mL leupeptin, 1 mM dithiothreitol, 10 mM β-glycerophosphate, 0.1 mM sodium vanadate, 1 mM sodium fluoride, 2.5 mM ethylene glycol-bis(β-aminoethyl ether)-N,N,N′N′-tetraacetic acid (EGTA), 2% (v/v) dimethylsulfoxide, and 0.03-0.4 μCi [^32/33P]ATP per reaction. Reactions were initiated with enzyme, incubated at 30° C., and terminated after 20 minutes by the addition of ethylenediaminetetraacetic acid (EDTA) to 250 mM. The phosphorylated substrate was then captured on a nitrocellulose or phosphocellulose membrane using a 96-well filtration manifold, and unincorporated radioactivity was removed by repeated washing with 0.85% phosphoric acid. Radioactivity was quantified by exposing the dried membranes to a phosphorimager.
Inhibition was measured relative to control wells that contained all reaction components including 2% (v/v) DMSO but no compound, after subtraction of background radioactivity measured in the absence of enzyme. Apparent Ki values of discrete compounds were measured by assaying enzyme activity in the presence of different inhibitor compound concentrations and subtracting the background radioactivity measured in the absence of enzyme. The kinetic parameters (kcat, Km for ATP) were measured for each enzyme under the usual assay conditions by determining the dependence of initial rates on ATP concentration. Inhibition data were fit to an equation for competitive inhibition using Kaleidagraph (Synergy Software), or were fit to an equation for competitive tight-binding inhibition using the software KineTic (BioKin, Ltd.).
Inhibition of CDK2/Cyclin A Retinoblastoma Kinase Activity:
CDK2 was purified using published methodology (Rosenblatt et al., “Purification and Crystallization of Human Cyclin-dependent Kinase 2,” J. Mol. Biol., vol. 230, 1993, pp. 1317-1319) from insect cells that had been infected with a baculovirus expression vector. […] A complex of CDK2 and proteolyzed cyclin A was prepared and purified by gel filtration. The substrate for this assay was the same Rb substrate fragment used for the CDK4 assays, and the methodology of the CDK2/delta cyclin A and the CDK4/delta cyclin D3 assays was essentially the same, except that CDK2 was present at 10 nM or 19 nM. The duration of the assay was 60 or 75 minutes, during which the time-dependence of product formation was linear and initial rate conditions were met. And, the percent inhibitions of the compounds of Example O through Example R were calculated as described above and shown in Table 2.

Row | inhibition at 0.05 µM (CDK2/Cyclin A) | SMILES | inhibition at 0.175 µM (HCT-116 cell line) | other results
1 | 80% | Nc1nc(NC2CCN(S(=O)(=O)CCCNCCC3CCCN3)CC2)sc1C(=O)c1c(F)cccc1F (centres unmarked) [Example V1] | 7% | 
2 | 85% | Nc1nc(NC2CCN(S(=O)(=O)CCCNc3ccccn3)CC2)sc1C(=O)c1c(F)cccc1F [Example V2] | 6% | 
3 | 84% | Nc1nc(NC2CCN(S(=O)(=O)CCCNCCCn3ccnc3)CC2)sc1C(=O)c1c(F)cccc1F [Example V3] | 17% | 
4 | 75% | Nc1nc(NC2CCN(S(=O)(=O)CCCNCCCO)CC2)sc1C(=O)c1c(F)cccc1F [Example V4] | 19% | 
5 | 79% | Nc1nc(NC2CCN(S(=O)(=O)CCCNCCN3CCCCC3)CC2)sc1C(=O)c1c(F)cccc1F [Example V5] | 7% | 
6 | 80% | Nc1nc(NC2CCN(S(=O)(=O)CCCNCc3cccnc3)CC2)sc1C(=O)c1c(F)cccc1F [Example V6] | 1% | 
7 | 82% | Nc1nc(NC2CCN(S(=O)(=O)CCCNCc3ccccn3)CC2)sc1C(=O)c1c(F)cccc1F [Example V7] | 0% | 
8 | 81% | Nc1nc(NC2CCN(S(=O)(=O)CCCNCCc3ccccn3)CC2)sc1C(=O)c1c(F)cccc1F [Example V8] | 18% | 
9 | 78% | Nc1nc(NC2CCN(S(=O)(=O)CCCNCCN3CCCC3)CC2)sc1C(=O)c1c(F)cccc1F [Example V9] | 13% | 
10 | 69% | Nc1nc(NC2CCN(S(=O)(=O)CCCNCCN3CCOCC3)CC2)sc1C(=O)c1c(F)cccc1F [Example V10] | 3% | 
11 | 74% | Nc1nc(NC2CCN(S(=O)(=O)CCCNCCOCCO)CC2)sc1C(=O)c1c(F)cccc1F [Example V11] | 11% | 
12 | 93% | Nc1nc(NC2CCN(S(=O)(=O)CCCNCc3ccccc3)CC2)sc1C(=O)c1c(F)cccc1F [Example V12] | 69% | 
13 | 90% | CN(CCCS(=O)(=O)N1CCC(Nc2nc(N)c(C(=O)c3c(F)cccc3F)s2)CC1)Cc1ccccc1 [Example V13] | 79% | 
14 | 75% | CCN(CC)CCCNCCCS(=O)(=O)N1CCC(Nc2nc(N)c(C(=O)c3c(F)cccc3F)s2)CC1 [Example V14] | 18% | 
15 | 62% | CN(C)CCCNCCCS(=O)(=O)N1CCC(Nc2nc(N)c(C(=O)c3c(F)cccc3F)s2)CC1 [Example V15] | 11% | 
16 | 80% | NC(=O)C1CCCN(CCCS(=O)(=O)N2CCC(Nc3nc(N)c(C(=O)c4c(F)cccc4F)s3)CC2)C1 (centres unmarked) [Example V16] | 5% | 
17 | 78% | NC(=O)CNCCCS(=O)(=O)N1CCC(Nc2nc(N)c(C(=O)c3c(F)cccc3F)s2)CC1 [Example V17] | 0% | 
18 | 22% | Nc1nc(NC2CCN(S(=O)(=O)CCCNC3CCOC3=O)CC2)sc1C(=O)c1c(F)cccc1F (centres unmarked) [Example V18] | 0% | 
19 | 59% | CC(=O)NCCNCCCS(=O)(=O)N1CCC(Nc2nc(N)c(C(=O)c3c(F)cccc3F)s2)CC1 [Example V19] | 13% | 
20 | 81% | Nc1nc(NC2CCN(S(=O)(=O)CCCNCC3CCCO3)CC2)sc1C(=O)c1c(F)cccc1F (centres unmarked) [Example V20] | 9% | 

The remaining lines, values behind:

Row | SMILES | inhibition at 0.05 µM (CDK2/Cyclin A) | inhibition at 0.175 µM (HCT-116 cell line) | other results
21 | Nc1nc(NC2CCN(S(=O)(=O)CCCNC3CCCCC3)CC2)sc1C(=O)c1c(F)cccc1F [Example K55, {4-Amino-2-[1-(3-cyclohexylamino-propane-1-sulfonyl)-piperidin-4-ylamino]-thiazol-5-yl}-(2,6-difluoro-phenyl)-methanone] |  |  | IC50 (HCT-116 cell line): 680 nM; Ki (CDK2/Cyclin A): 8 nM
22 | Nc1nc(NC2CCN(S(=O)(=O)CCCNc3ccccn3)CC2)sc1C(=O)c1c(F)cccc1F [Example K56, (4-Amino-2-{1-[3-(pyridin-2-ylamino)-propane-1-sulfonyl]-piperidin-4-ylamino}-thiazol-5-yl)-(2,6-difluoro-phenyl)-methanone. Trifluoroacetic Acid Salt] |  |  | IC50 (HCT-116 cell line): 2640 nM; Ki (CDK2/Cyclin A): 8 nM
23 | C=CCNCCCS(=O)(=O)N1CCC(Nc2nc(N)c(C(=O)c3c(F)cccc3F)s2)CC1 [Example K57, {2-[1-(3-Allylamino-propane-1-sulfonyl)-piperidin-4-ylamino]-4-amino-thiazol-5-yl}-(2,6-difluoro-phenyl)-methanone. Trifluoroacetic Acid Salt] |  |  | IC50 (HCT-116 cell line): 480 nM; Ki (CDK2/Cyclin A): 7 nM
24 | CC1CCN(CCCS(=O)(=O)N2CCC(Nc3nc(N)c(C(=O)c4c(F)cccc4F)s3)CC2)CC1 [Example K58, {4-Amino-2-[(1-{[3-(4-methylpiperidin-1-yl)propyl]sulfonyl}piperidin-4-yl)amino]-1,3-thiazol-5-yl}(2,6-difluorophenyl)methanone] |  |  | IC50 (HCT-116 cell line): 150 nM; Ki (CDK2/Cyclin A): 11 nM
25 | COC1CCN(CCCS(=O)(=O)N2CCC(Nc3nc(N)c(C(=O)c4c(F)cccc4F)s3)CC2)CC1 [Example K59, {4-Amino-2-[(1-{[3-(4-methoxypiperidin-1-yl)propyl]sulfonyl}piperidin-4-yl)amino]-1,3-thiazol-5-yl}(2,6-difluorophenyl)methanone] |  |  | IC50 (HCT-116 cell line): 270 nM; Ki (CDK2/Cyclin A): 11 nM
26 | CC1(C)CCCN(CCCS(=O)(=O)N2CCC(Nc3nc(N)c(C(=O)c4c(F)cccc4F)s3)CC2)C1 [Example K60, {4-Amino-2-[(1-{[3-(3,3-dimethylpiperidin-1-yl)propyl]sulfonyl}piperidin-4-yl)amino]-1,3-thiazol-5-yl}(2,6-difluorophenyl)methanone] |  |  | IC50 (HCT-116 cell line): 120 nM; Ki (CDK2/Cyclin A): 13 nM
27 | CN(CCCS(=O)(=O)N1CCC(Nc2nc(N)c(C(=O)c3c(F)cccc3F)s2)CC1)C1CCCCC1 [Example K61, (4-Amino-2-{1-[3-(cyclohexyl-methyl-amino)-propane-1-sulfonyl]-piperidin-4-ylamino}-thiazol-5-yl)-(2,6-difluoro-phenyl)-methanone. Acetic Acid Salt] |  |  | IC50 (HCT-116 cell line): 170 nM; Ki (CDK2/Cyclin A): 8 nM
28 | CC(C)(NCCS(=O)(=O)N1CCC(Nc2nc(N)c(C(=O)c3c(F)cccc3F)s2)CC1)c1ccccc1 [Example S173] |  |  | inhibition at 0.25 µM (HCT-116 cell line): 35%
29 | Nc1nc(NC2CCN(S(=O)(=O)CCN3CCC3)CC2)sc1C(=O)c1c(F)cccc1F [Example S174] |  |  | inhibition at 0.25 µM (HCT-116 cell line): 10%
30 | C#CC(CC)(CC)NCCS(=O)(=O)N1CCC(Nc2nc(N)c(C(=O)c3c(F)cccc3F)s2)CC1 [Example S175] |  |  | inhibition at 0.25 µM (HCT-116 cell line): 99%
31 | CN1CCCN(CCS(=O)(=O)N2CCC(Nc3nc(N)c(C(=O)c4c(F)cccc4F)s3)CC2)CC1 [Example S176] |  |  | inhibition at 0.25 µM (HCT-116 cell line): 17%
32 | C[C@@H](NCCC(=O)N1CCC(Nc2nc(N)c(C(=O)c3c(F)cccc3F)s2)CC1)c1ccccc1 [Example U1, Trifluoroacetic Acid Salt] |  |  | IC50 (HCT-116 cell line): 910 nM; Ki (CDK2/Cyclin A): 20.7 nM
33 | CC(C)(C)NCCC(=O)N1CCC(Nc2nc(N)c(C(=O)c3c(F)cccc3F)s2)CC1 [Example U4, Acetic Acid Salt] |  |  | IC50 (HCT-116 cell line): > 5000 nM; inhibition at 0.5 µM (CDK2/Cyclin A; @0.5 μM, printed in the CDK2 Ki column): 40%
